Experimental findings from ChEMBL document CHEMBL2396590, “Inhibition of HIV-1 integrase dimerization and activity with crosslinked interfacial peptides” (Bioorg Med Chem, 2013) are described below.

Active and inactive are the calls of the source. No cut-off for these calls is given here. Starred links: 1 amine or outer side, 2 acyl side, 3 side chain; linkers in the order of their positions; H or OH if unused. Non-standard residues stand in square brackets, D forms with d. Residues, ends and D or L forms follow the SMILES beside them. X2 = O=C(C1CCCC(CN[*:1])C1)[*:2]; X3 = O=C(CC1CCN([*:1])CC1)[*:2]; X4 = O=C(CCC(=O)[*:2])CN[*:1]; Ahp = NCCCCCCC(=O)O; Ahx = NCCCCCC(=O)O

For assay [1], the system named is Human immunodeficiency virus type 1 integrase (Human immunodeficiency virus 1), Q7ZJM1 [F185K,C280S]. In words: Inhibition of HIV1 integrase F185K/C280S double mutant dimerization expressed in Escherichia coli BL21 (DE3) at 100 fold excess compound concentration after 1 hr by PAGE analysis.
For assay [2] the test system is unchanged. Briefly: Inhibition of HIV1 integrase F185K/C280S double mutant dimerization expressed in Escherichia coli BL21 (DE3) at 110 uM after 1 hr by PAGE analysis.
Assay [3] deals with Human immunodeficiency virus type 1 integrase (Human immunodeficiency virus 1, UniProt Q7ZJM1, C280S/F185K). Briefly: Inhibition of HIV1 3'-processing activity of integrase F185K/C280S double mutant expressed in Escherichia coli BL21 (DE3).

Turning to `CC[C@H](C)[C@H](NC(=O)[C@H](CC(=O)O)NC(=O)[C@@H](NC(=O)[C@H](C)NC(=O)[C@@H](NC(=O)[C@@H](NC(=O)[C@H](CC(=O)O)NC(=O)[C@@H](NC(=O)[C@@H](NC(=O)[C@H](CCCNC(=N)N)NC(=O)[C@H](CCC(=O)O)NC(=O)CNC(=O)[C@H](C)NC(=O)CCCCCNC(=O)[C@H](CCCNC(=N)N)NC(=O)[C@H](CCCCN)NC(=O)[C@H](Cc1ccccc1)NC(=O)[C@H](CC(N)=O)NC(=O)[C@H](Cc1cnc[nH]1)NC(=O)[C@@H](NC(=O)[C@H](Cc1ccccc1)NC(=O)[C@@H](NC(=O)[C@H](C)NC(=O)[C@H](CCSC)NC(=O)[C@H](CCC(N)=O)NC(=O)[C@@H](NC(=O)[C@H](C)NC(=O)[C@@H](NC(=O)[C@H](CCCCN)NC(=O)[C@H](CC(C)C)NC(=O)[C@@H](N)Cc1cnc[nH]1)[C@@H](C)O)C(C)C)C(C)C)[C@@H](C)CC)[C@@H](C)CC)C(C)C)[C@@H](C)CC)[C@@H](C)CC)[C@@H](C)O)C(=O)N[C@@H](CCC(N)=O)C(N)=O` (H-HLKTAVQMAVFIHNFKR[Ahx]AGERIVDIIATDIQ-NH2), the inhibition result in assay [1] and in assay [2] was “inactive” in each case. Moreover, the half-inhibitory concentration (IC50) (in general, the concentration that inhibits the measured activity by half) in assay [3] came to 1.5 µM.

For `CC[C@H](C)[C@H](NC(=O)[C@H](CC(=O)O)NC(=O)[C@@H](NC(=O)[C@H](C)NC(=O)[C@@H](NC(=O)[C@@H](NC(=O)[C@H](CC(=O)O)NC(=O)[C@@H](NC(=O)[C@@H](NC(=O)[C@H](CCCNC(=N)N)NC(=O)[C@H](CCC(=O)O)NC(=O)CNC(=O)[C@H](C)NC(=O)CCCCCCNC(=O)[C@H](CCCNC(=N)N)NC(=O)[C@H](CCCCN)NC(=O)[C@H](Cc1ccccc1)NC(=O)[C@H](CC(N)=O)NC(=O)[C@H](Cc1cnc[nH]1)NC(=O)[C@@H](NC(=O)[C@H](Cc1ccccc1)NC(=O)[C@@H](NC(=O)[C@H](C)NC(=O)[C@H](CCSC)NC(=O)[C@H](CCC(N)=O)NC(=O)[C@@H](NC(=O)[C@H](C)NC(=O)[C@@H](NC(=O)[C@H](CCCCN)NC(=O)[C@H](CC(C)C)NC(=O)[C@@H](N)Cc1cnc[nH]1)[C@@H](C)O)C(C)C)C(C)C)[C@@H](C)CC)[C@@H](C)CC)C(C)C)[C@@H](C)CC)[C@@H](C)CC)[C@@H](C)O)C(=O)N[C@@H](CCC(N)=O)C(N)=O` (H-HLKTAVQMAVFIHNFKR[Ahp]AGERIVDIIATDIQ-NH2), in assay [2], the inhibition result was “Active”. For the same molecule, in assay [3], it took 0.91 µM to reach half-maximal inhibition (IC50).

In the case of `CC[C@H](C)[C@H](NC(=O)[C@H](CC(=O)O)NC(=O)[C@@H](NC(=O)[C@H](C)NC(=O)[C@@H](NC(=O)[C@@H](NC(=O)[C@H](CC(=O)O)NC(=O)[C@@H](NC(=O)[C@@H](NC(=O)[C@H](CCCNC(=N)N)NC(=O)[C@H](CCC(=O)O)NC(=O)CNC(=O)[C@H](C)NC(=O)C1CCCC(CNC(=O)[C@H](CCCNC(=N)N)NC(=O)[C@H](CCCCN)NC(=O)[C@H](Cc2ccccc2)NC(=O)[C@H](CC(N)=O)NC(=O)[C@H](Cc2cnc[nH]2)NC(=O)[C@@H](NC(=O)[C@H](Cc2ccccc2)NC(=O)[C@@H](NC(=O)[C@H](C)NC(=O)[C@H](CCSC)NC(=O)[C@H](CCC(N)=O)NC(=O)[C@@H](NC(=O)[C@H](C)NC(=O)[C@@H](NC(=O)[C@H](CCCCN)NC(=O)[C@H](CC(C)C)NC(=O)[C@@H](N)Cc2cnc[nH]2)[C@@H](C)O)C(C)C)C(C)C)[C@@H](C)CC)C1)[C@@H](C)CC)C(C)C)[C@@H](C)CC)[C@@H](C)CC)[C@@H](C)O)C(=O)N[C@@H](CCC(N)=O)C(N)=O` (stereo partly specified) (H-HLKTAVQMAVFIHNFKR[X2]AGERIVDIIATDIQ-NH2), the inhibition entry in assay [2] was “Active”. Besides, the midpoint of inhibition in assay [3], the IC50, lay at 1 µM.

As to `CC[C@H](C)[C@H](NC(=O)[C@H](CC(=O)O)NC(=O)[C@@H](NC(=O)[C@H](C)NC(=O)[C@@H](NC(=O)[C@@H](NC(=O)[C@H](CC(=O)O)NC(=O)[C@@H](NC(=O)[C@@H](NC(=O)[C@H](CCCNC(=N)N)NC(=O)[C@H](CCC(=O)O)NC(=O)CNC(=O)[C@H](C)NC(=O)CCC(=O)CNC(=O)[C@H](CCCNC(=N)N)NC(=O)[C@H](CCCCN)NC(=O)[C@H](Cc1ccccc1)NC(=O)[C@H](CC(N)=O)NC(=O)[C@H](Cc1cnc[nH]1)NC(=O)[C@@H](NC(=O)[C@H](Cc1ccccc1)NC(=O)[C@@H](NC(=O)[C@H](C)NC(=O)[C@H](CCSC)NC(=O)[C@H](CCC(N)=O)NC(=O)[C@@H](NC(=O)[C@H](C)NC(=O)[C@@H](NC(=O)[C@H](CCCCN)NC(=O)[C@H](CC(C)C)NC(=O)[C@@H](N)Cc1cnc[nH]1)[C@@H](C)O)C(C)C)C(C)C)[C@@H](C)CC)[C@@H](C)CC)C(C)C)[C@@H](C)CC)[C@@H](C)CC)[C@@H](C)O)C(=O)N[C@@H](CCC(N)=O)C(N)=O` (H-HLKTAVQMAVFIHNFKR[X4]AGERIVDIIATDIQ-NH2), in assay [2], the inhibition entry is “Active”. It took 0.43 µM to reach half-maximal inhibition in assay [3] (IC50).

Take `CC[C@H](C)[C@H](NC(=O)[C@H](CC(=O)O)NC(=O)[C@@H](NC(=O)[C@H](C)NC(=O)[C@@H](NC(=O)[C@@H](NC(=O)[C@H](CC(=O)O)NC(=O)[C@@H](NC(=O)[C@@H](NC(=O)[C@H](CCCNC(=N)N)NC(=O)[C@H](CCC(=O)O)NC(=O)CNC(=O)[C@H](C)NC(=O)CC1CCN(C(=O)[C@H](CCCNC(=N)N)NC(=O)[C@H](CCCCN)NC(=O)[C@H](Cc2ccccc2)NC(=O)[C@H](CC(N)=O)NC(=O)[C@H](Cc2cnc[nH]2)NC(=O)[C@@H](NC(=O)[C@H](Cc2ccccc2)NC(=O)[C@@H](NC(=O)[C@H](C)NC(=O)[C@H](CCSC)NC(=O)[C@H](CCC(N)=O)NC(=O)[C@@H](NC(=O)[C@H](C)NC(=O)[C@@H](NC(=O)[C@H](CCCCN)NC(=O)[C@H](CC(C)C)NC(=O)[C@@H](N)Cc2cnc[nH]2)[C@@H](C)O)C(C)C)C(C)C)[C@@H](C)CC)CC1)[C@@H](C)CC)C(C)C)[C@@H](C)CC)[C@@H](C)CC)[C@@H](C)O)C(=O)N[C@@H](CCC(N)=O)C(N)=O` (H-HLKTAVQMAVFIHNFKR[X3]AGERIVDIIATDIQ-NH2): the inhibition result in assay [2] is “Active”. In assay [3], this molecule displayed an IC50 of 0.57 µM.
